The results in this text go back to patent US20080220444A1, “Bone Marrow Proliferation Assay” (priority 2003, published 2008).

For experiment [1], the system named is human bone marrow cells. The experiment can be described thus: Traditional CFU-GM colony-forming assay (myelotoxicity). The format is cell-based. As to the method:
Bone marrow was enriched after ficoll hypaque density centrifugation. 1×10^5 bone marrow cells per dish, containing METHOCULT GF H4534 (1% methylcellulose, 30% FBS, 1% BSA, 10^-4 M 2-ME, 2 mM L-gln, 50 ng/mL recombinant human (rh) stem cell factor (SCF), 10 ng/mL rh granulocyte/macrophage-colony stimulating factor (GM-CSF), and 10 ng/mL rh interleukin-3 (IL-3). METHOCULT was obtained from StemCell Technologies (Vancouver, BC, Canada). Cultures were treated with various concentrations of test compounds for the entire culture period. Cultures were performed in duplicate and were incubated for ˜14 days at 37° C. in 5% CO2 and scored for colony growth (colony-forming units-granulocyte/macrophage, or CFU-GM) with a phase-contrast inverted microscope. Colonies containing >50 cells were considered positive.

Experiment [2] deals with human bone marrow cells. Briefly: Bone marrow proliferation assay (3H-thymidine uptake, cytokine-activated cells). Conditions: Bone marrow cell; for IC50: concentration inhibiting proliferation by 50%. The format is cell-based. As for the experimental part: Bone marrow (BM) was obtained from human donors, collected in Dulbecco's phosphate buffered saline (DPBS) containing 200 units/mL of heparin. The BM cells were then processed as described below. ROSETTESEP™ cocktail was added to the BM cells at a ratio of 50 μL of cocktail per 1 mL of cells in a test tube and the tubes were mixed well by repeated inversion. This mixture was then incubated at room temperature for approximately 20 minutes. A mixture containing PBS/2% FBS/1 mM EDTA was prepared and the BM sample was mixed in a 1:2 ratio (e.g., 10 mL marrow+20 mL PBS/2% FBS/1 mM EDTA) and gently mixed by inversion. […] Cells were counted and viability checked and cells were adjusted to 5×10^5/mL in complete medium containing the following human recombinant growth factors/cytokines at the indicated final concentrations (cytokines may be obtained from various sources; those from StemCell Technologies were used herein): • Stem Cell Factor (50 ng/mL) • GM-CSF (20 ng/mL) • IL-3 (20 ng/mL) • IL-6 (20 ng/mL) • G-CSF (20 ng/mL)
Flat-bottom microtiter tissue culture plates (96 well) were used for the assay. Cells were placed in wells so that each well contained 5×10^4 cells. Typically, cultures were performed in triplicate wells. Wells were brought to a final volume of 200 μL with either complete medium or various concentrations of test compounds, which were diluted in complete medium. Plates were covered with plastic wrap (to reduce evaporation) and placed in a humidified 5% CO2 incubator at 37° C. for 3 days.

[3] abbreviates: CFU-GM, 336 h, CFU-GM, concentration inhibiting colony growth by 50%, linear regression, ~14 days, mean +/- spread.
[4] abbreviates: CFU-GM, 336 h, CFU-GM, concentration inhibiting colony growth by 90%, linear regression, ~14 days, mean +/- spread.
[5] abbreviates: 72 h, Prolif., linear regression, 3 days, mean +/- spread.
The mark [6] stands for this setting: 72 h, Prolif., concentration inhibiting proliferation by 90%, linear regression, 3 days, mean +/- spread, read-out: IC90.
Setting [7] is: Bone marrow cell, Colony-forming Assay, intra-assay variation, equal to the mean of the five determinations.
Where [8] appears, read: Bone marrow cell, Colony-forming Assay, intra-assay variation, individual determinations.

As usually defined, the IC50 is the concentration needed to halve the response being measured. High values mean weaker potency, low ones greater potency. In general, IC90 refers to the point of the concentration-response curve where the effect stands at 90%. Take `Nc1ccn([C@@H]2O[C@H](CO)[C@@H](O)C2(F)F)c(=O)n1` [Gemcitabine, gemcitabine]: the IC50 in the experiment on human bone marrow cells [1] (setting [3]) is 0.0013 µM; in the experiment with human bone marrow cells [2] (setting [5]), 0.0012 µM. In addition, the concentration for an effect of 90% (IC90) with human bone marrow cells [1] (setting [4]) was determined as 0.0042 µM; in the experiment with human bone marrow cells [2] (setting [6]), 0.0044 µM.

Consider `Cc1cn([C@H]2C[C@H](N=[N+]=[N-])[C@@H](CO)O2)c(=O)[nH]c1=O` [AZT, 3′-azido-3′-deoxythymidine], for which the 50% inhibitory concentration (IC50) was 34.5 µM in the experiment on human bone marrow cells [1] (setting [3]) and 17.1 µM in the experiment on human bone marrow cells [2] (setting [5]). Also, the concentration for an effect of 90% (IC90) was found to be 387 µM in the experiment on human bone marrow cells [1] (setting [4]) and 146 µM in the experiment on human bone marrow cells [2] (72 h).

As for `CC(=O)O[C@H]1C(=O)[C@@]2(C)[C@H]([C@H](OC(=O)c3ccccc3)[C@]3(O)C[C@H](OC(=O)[C@H](O)[C@@H](NC(=O)c4ccccc4)c4ccccc4)C(C)=C1C3(C)C)[C@]1(OC(C)=O)CO[C@@H]1C[C@@H]2O` [Paclitaxel, paclitaxel], the results for the IC50 in the experiment with human bone marrow cells [1] (setting [3]) and with human bone marrow cells [2] (setting [5]) were 0.0034 µM and 0.0019 µM, respectively. Further, the results for the IC90 in the experiment with human bone marrow cells [1] (setting [4]) and in the experiment with human bone marrow cells [2] (setting [6]) were 0.006 µM and 0.0049 µM, respectively.

Regarding `Nc1ccn([C@@H]2S[C@H](CO)[C@@H](O)[C@@H]2O)c(=O)n1` [Thio-ara-C, thio-ara-C], the figures for the IC50 in the experiment on human bone marrow cells [1] (setting [3]) and with human bone marrow cells [2] (setting [5]) were 0.0403 µM and 0.075 µM, respectively. Also, the results for the 90% effect concentration (IC90) in the experiment on human bone marrow cells [1] (setting [4]) and with human bone marrow cells [2] (setting [6]) were 0.122 µM and 0.301 µM, respectively.

Regarding `COc1cccc2c1C(=O)c1c(O)c3c(c(O)c1C2=O)C[C@@](O)(C(=O)CO)C[C@@H]3O[C@H]1C[C@H](N)[C@H](O)[C@H](C)O1` [Doxorubicin, doxorubicin], the IC50 with human bone marrow cells [1] (setting [7]) came out at 0.0291 µM; in the experiment on human bone marrow cells [1] (setting [8]) it was 0.0342 µM; with human bone marrow cells [1] (setting [3]) it was 0.04 µM. For the same molecule, the IC90 in the experiment with human bone marrow cells [1] (setting [7]) was determined as 0.0692 µM; with human bone marrow cells [1] (setting [8]), 0.0724 µM; with human bone marrow cells [1] (setting [4]), 0.132 µM; in the experiment on human bone marrow cells [2] (setting [6]) it was 0.068 µM; in the experiment on human bone marrow cells [2] (Proliferation Assay, intra-assay variation, equal to the mean of the five determinations, read-out: IC90) it was 0.0702 µM; in the experiment with human bone marrow cells [2] (Proliferation Assay, intra-assay variation, individual determinations, read-out: IC90), 0.0712 µM.
